According to patent US8063012B2, “Neuroprotective peptide inhibitors of AP-1 signaling and uses therefor” (Phylogica Limited, priority 2006, dated 2011):
Entries after “also recorded” stand apart in the source; their conditions may differ. No end group written: not given here.

Columns and labels:
[1] = system: primary cortical neuronal cultures; assay: Light microscopy assessment of neuronal damage after glutamate exposure; assay type: cell-based, rat; conditions: light microscopy, one hour to 18 hours post glutamate exposure
Protocol: Cortical neuronal cultures were established as described by Meloni et al., Neuroscience 108, 17-26, 2001. Briefly, cortical tissue from E18-E19 Sprague-Dawley rats was dissociated in Dulbelcco's Modified Eagle Medium (DMEM; Invitrogen, Australia) supplemented with 1.3 mM L-cysteine, 0.9 mM NaHCO3, 10 units/ml papain (Sigma, USA) and 50 units/ml DNase (Sigma) and washed in cold DMEM/10% (v/v) horse serum. Neurons were resuspended in Neurobasal (NB; Invitrogen) containing 2% B27 supplement (B27; Invitrogen). Before seeding, culture vessels comprising either a 96-well plastic plate or 24-well plastic plate with 13 mm glass coverslips (ProSciTech, Australia), were coated with poly-D-lysine (50 μg/mL; 70-150K; Sigma) and incubated overnight at room temperature. The poly-D-lysine was removed and replaced with NB (containing 2% B27; 4% fetal bovine serum; 1% horse serum; 62.5 μM glutamate; 25 μM 2-mercaptoethanol; and 30 μg/mL streptomycin and 30 μg/mL penicillin). Neurons were plated to obtain approximately 10,000 viable neurons for each well of a 96-well plate, or 200,000 viable neurons per well of a 24-well plate, on day in vitro (DIV) […]. Neuronal cultures were maintained in a CO2 incubator (5% CO2, 95% air balance, 98% humidity) at 37° C. On DIV 4, one third of the culture medium was removed and replaced with fresh NB/2% B27 containing the mitotic inhibitor, cytosine arabinofuranoside (Sigma) at 1 μM concentration. On DIV 8, one half of the culture medium was replaced with NB/2% B27. Cultures were used on DIV 11 or 12, and consisted of >95% neurons.
(§1) To induce glutamate excitotoxicity in the cortical neuronal cultures (96-well plate format), 50 μl of conditioned media containing 200 μM glutamate was added to culture wells containing 50 μl conditioned media (100 μM final glutamate concentration). Cultures were incubated at 37° C. in a CO2 incubator for 5 minutes, after which time the media was replaced with 100 μl of 50% NB/2% N2 and 50% balance salt solution (NB/N2:BSS).
(§2) Eighteen hours after glutamate exposure, neuronal cultures were examined by light microscopy for qualitative assessment of neuronal damage. Neuronal viability was quantitatively measured by 3-(4,5,dimethyliazol-2-yl)-5-(3-carboxymethoxy-phenyl)-2-(4-sulfophenyl)-2H-tetrazolium salt (MTS) assay (Promega, Australia). The MTS assay measures the mitochondrial conversion of the tetrazolium salt to a water-soluble brown formazan salt, which is detected spectrophotometrically at 495 nm. MTS absorbance data was converted to reflect proportional cell viability relative to both the untreated and glutamate treated controls. […] All assays were performed with quadruplicate sister neuronal cultures repeated a minimum of four times independently.

[2] = system: primary cortical neuronal cultures; assay: Glutamate excitotoxicity in primary cortical neuronal cultures, neuronal viability by MTS assay; assay type: cell-based, rat; conditions: for neuronal viability following glutamate excitotoxicity: MTS 18 h; for extracellular concentration providing significant neuroprotection: dose response 0.1-10 μM
Protocol: Neurons were resuspended in Neurobasal (NB; Invitrogen) containing 2% B27 supplement (B27; Invitrogen). Before seeding, culture vessels comprising either a 96-well plastic plate or 24-well plastic plate with 13 mm glass coverslips (ProSciTech, Australia), were coated with poly-D-lysine (50 μg/mL; 70-150K; Sigma) and incubated overnight at room temperature. […] Neurons were plated to obtain approximately 10,000 viable neurons for each well of a 96-well plate, or 200,000 viable neurons per well of a 24-well plate, on day in vitro (DIV) […]. […] On DIV 4, one third of the culture medium was removed and replaced with fresh NB/2% B27 containing the mitotic inhibitor, cytosine arabinofuranoside (Sigma) at 1 μM concentration. On DIV 8, one half of the culture medium was replaced with NB/2% B27.
as §1
Untreated and glutamate-treated control samples received media additions with and without glutamate respectively.
as §2

[3] = 1 μM extracellular concentration
[4] = 2 μM extracellular concentration
[5] = 5 μM extracellular peptide, 100 μM glutamate 5 min, no insult = 100%

Compound | neuronal morphology (cellular rounding, survival) after glutamate exposure [1] | neuroprotection following glutamate excitotoxicity [2, 3] | neuroprotection following glutamate excitotoxicity [2, 4] | neuronal viability following glutamate excitotoxicity [2, 5] [%] | neuronal viability following glutamate excitotoxicity ([2]; 5 μM extracellular peptide, 100 μM glutamate 5 min, no insult = 100%, listed as JNKI-1 D-TAT) [%] | neuronal viability following glutamate excitotoxicity ([2]; 5 μM extracellular peptide, 100 μM glutamate 5 min, no insult = 100%, listed as JNKI-1D-TAT) [%] | extracellular concentration providing significant neuroprotection ([2]; glutamate excitotoxicity) [µM] | concentrations at which significant neuroprotection is exhibited ([2]; glutamate excitotoxicity, p<0.0077) | neuroprotection compared with JNKI-1D-TAT ([2]; 1 μM concentration) | neuronal viability following glutamate excitotoxicity ([2]; 1 μM extracellular peptide) [%]
GRKKRRQRRRGLINQSYAYPYIY [PYC19L-TAT] | did not begin to round and survived glutamate excitotoxicity | neuroprotective trend; also recorded: significant neuroprotection | neuroprotective trend | 32 | – | – | – | – | – | –
CC(C)C[C@@H](NC(=O)[C@@H](Cc1ccccc1)NC(=O)[C@H]1CCCN1C(=O)[C@@H](CCC(N)=O)NC(=O)[C@H](NC(=O)[C@H]1CCCN1C(=O)[C@@H](CCCNC(=N)N)NC(=O)[C@@H](CO)NC(=O)[C@@H](CCC(N)=O)NC(=O)[C@@H](CC(=O)O)NC(=O)[C@H](N)[C@H](C)O)C(C)C)C(=O)N[C@H](CC(N)=O)C(=O)N[C@H](CC(C)C)C(=O)N[C@@H](C(=O)N[C@@H](C(=O)N1CCC[C@@H]1C(=O)N[C@H](CCCNC(=N)N)C(=O)N[C@H](CCCCN)C(=O)N1CCC[C@@H]1C(=O)N[C@H](CCCNC(=N)N)C(=O)N1CCC[C@@H]1C(=O)N1CCC[C@@H]1C(=O)N[C@H](CCCNC(=N)N)C(=O)N[C@H](CCCNC(=N)N)C(=O)N[C@H](CCCNC(=N)N)C(=O)N[C@H](CCC(N)=O)C(=O)N[C@H](CCCNC(=N)N)C(=O)N[C@H](CCCNC(=N)N)C(=O)N[C@H](CCCCN)C(=O)N[C@H](CCCCN)C(=O)N[C@H](CCCNC(=N)N)C(=O)NCC(=O)O)[C@H](C)O)[C@H](C)O [JNK1-1D-TAT, reference compound] | did not begin to round and survived glutamate excitotoxicity | – | – | – | 75 | 89 | ≥ 2 | micromolar concentrations | – | –
GRKKRRQRRRGGLQGRRRQGYQSIKP [PYC36L-TAT] | did not begin to round and survived glutamate excitotoxicity | significant level of neuroprotection | – | 64 | – | – | – | – | greater neuroprotection than JNKI-1D-TAT | 30
GRKKRRQRRRGGLQGRRQPGQQPQGRWSGRALPAHR [PYC38/39L-TAT] | did not begin to round and survived glutamate excitotoxicity | neuroprotective trend | initial significant neuroprotection | 69 | – | – | – | – | – | –
GRKKRRQRRRGAYQSIRSGGIESSSKRER [PYC35L-TAT] | did not begin to round and survived glutamate excitotoxicity | – | neuroprotective trend | 42 | – | – | ≥ 2 | – | – | –
GRKKRRQRRRGVSINQEHHRLLPL [PYC41L-TAT] | did not begin to round and survived glutamate excitotoxicity | neuroprotective trend | initial significant neuroprotection | 38 | – | – | – | – | – | –
